Earlier results as cited in US20030060663A1, “Novel therapeutic agents for macromolecular structures” (priority 1998, published 2003).
Where two headings read alike, the source gives them in different places.

Legend:
[1] = clinical trials
[2] = animal models
[3] = test system: HRV (human rhinovirus)-16, 39, and 50; conditions: administered orally to patients infected with HRV-16, 39, and 50
coxsackievirus A21 = conditions: p.o. administration, patients challenged with coxsackievirus A21
[4] = test system: Microsporum, Epidermophyton and Trichophyton; conditions: various species of Microsporum
fungal pathogens = conditions: on average; for MIC values, fold higher than amphotericin B: range of fungal pathogens
HRV-9 = conditions: against HRV-9
mitotic microtubules = conditions: intact tectal plates from mouse embryos; blockade of cells at metaphase
axonal microtubules = conditions: intact tectal plates from mouse embryos
yeasts = conditions: relative to amphotericin B

COC(=O)[C@H]1[C@@H]2C[C@@H](O[C@@H]3O[C@H](C)[C@@H](O)[C@H](N)[C@@H]3O)/C=C/C=C/C=C/C=C/C=C/C=C/C=C/[C@H](C)[C@@H](O)[C@@H](C)[C@H](C)OC(=O)C[C@H](O)C[C@H](O)CC[C@@H](O)[C@H](O)C[C@H](O)C[C@](O)(C[C@@H]1O)O2 [Amphotericin B methyl ester]
nephrotoxicity compared with amphotericin B [1]: less nephrotoxic
nephrotoxicity compared with amphotericin B [2]: less nephrotoxic

Cc1cc(CCCCCOc2c(Cl)cc(C3N=CCO3)cc2Cl)on1 (centres unmarked) [Compound A]
therapeutic effect [3]: did not demonstrate a therapeutic effect
prophylactic effect in clinical trials (coxsackievirus A21): prophylactic effect

COC1=CC(=O)C[C@@H](C)[C@]12Oc1c(Cl)c(OC)cc(OC)c1C2=O [Griseofulvin]
in vitro activity against fungi [4]: fungistatic

COC(=O)C1C(O)CC2(O)CC(O)CC(O)C(O)CCC(O)CC(O)CC(=O)OC(C)C(C)C(O)C(C)C=CC=CC=CC=CC=CC=CC=CC(OC3OC(C)C(O)C(NC(=O)C(N)CCCN)C3O)CC1O2 (centres unmarked) [N-ornithyl amphotericin B methyl ester]
nephrotoxicity compared with amphotericin B [2]: less nephrotoxic

CC1C=CC=CC=CC=CC=CC=CC=CC(OC2OC(C)C(O)C(N)C2O)CC2OC(OCCO)(CC(O)CC(O)C(O)CCC(O)CC(O)CC(=O)OC(C)C(C)C1O)CC(O)C2C(=O)O (stereo not drawn) [beta-hydroxyethoxy ketal]
MIC values, fold higher than amphotericin B (fungal pathogens): 2 fold

COc1ccc(N2CCN(c3cccc(C)c3)CC2)nn1 [compound C]
prophylactic use (HRV-9): worked prophylactically

COC12CC(O)CC(O)C(O)CCC(O)CC(O)CC(=O)OC(C)C(C)C(O)C(C)C=CC=CC=CC=CC=CC=CC=CC(OC3OC(C)C(O)C(N)C3O)CC(O1)C(C(=O)O)C(O)C2 (centres unmarked) [methoxy ketal]
MIC values, fold higher than amphotericin B (fungal pathogens): 2 fold

CCCOC12CC(O)CC(O)C(O)CCC(O)CC(O)CC(=O)OC(C)C(C)C(O)C(C)C=CC=CC=CC=CC=CC=CC=CC(OC3OC(C)C(O)C(N)C3O)CC(O1)C(C(=O)O)C(O)C2 (centres unmarked) [n-propyloxy ketal]
fold less potent in vitro (fungal pathogens): 10 fold

CC[C@]1(O)C[C@@H]2CN(CCc3c([nH]c4ccccc34)[C@@](C(=O)OC)(c3cc4c(cc3OC)N(C)[C@H]3[C@@](O)(C(=O)OC)[C@H](OC(C)=O)[C@]5(CC)C=CCN6CC[C@]43[C@@H]65)C2)C1 [vinblastine]
concentration at which mitotic microtubule formation is inhibited (mitotic microtubules): 2 mcM
concentration producing depolymerization of axonal microtubules (axonal microtubules): 30 mcM

CC[C@]1(O)C[C@H]2CN(CCc3c([nH]c4ccccc34)[C@@](C(=O)OC)(c3cc4c(cc3OC)N(C=O)[C@H]3[C@@](O)(C(=O)OC)[C@H](OC(C)=O)[C@]5(CC)C=CCN6CC[C@]43[C@@H]65)C2)C1 [vincristine, Vincristine]
concentration at which mitotic microtubule formation is inhibited (mitotic microtubules): 2 mcM
concentration producing depolymerization of axonal microtubules (axonal microtubules): 5 mcM

CCC1=C[C@@H]2CN(C1)Cc1c([nH]c3ccccc13)[C@@](C(=O)OC)(c1cc3c(cc1OC)N(C)[C@H]1[C@@](O)(C(=O)OC)[C@H](OC(C)=O)[C@]4(CC)C=CCN5CC[C@]31[C@@H]54)C2 [vinorelbine, 3′,4′-Didehydro-4′-deoxy-C′-norvincaleukoblastine]
concentration at which mitotic microtubule formation is inhibited (mitotic microtubules): 2 mcM
concentration producing depolymerization of axonal microtubules (axonal microtubules): 40 mcM

monovalent adduct of amphotericin B with N,N′-1,6-hexandiyl-bis(maleimide)
MIC values against yeasts, fold higher than amphotericin B (yeasts): more than 20 fold
